Data as given in US20220281866A1, “5,8-DISUBSTITUTED-[1,2,4]TRIAZOLO[1,5-A]PYRIDINYL AND 5,8-DISUBSTITUTED-IMIDAZO[1,2-A]PYRIDINE DERIVATIVES USEFUL AS INHIBITORS OF ENTEROPEPTIDASE” (Janssen Pharmaceutica NV, priority 2019, published 2022).

How the values were obtained:
[1] = molecular target: T1, Recombinant full-length human EP (Enteropeptidase) (Homo sapiens, UniProt P98073); assay: In vitro inhibition potencies against Enteropeptidase (EP), fluorescent peptide GDDDDK-naphthylamine substrate; type: biochemical; conditions: 300 μM substrate, 1.25 nM EP; for inhibition at 0.1 µM: compound 0.1 μM; for inhibition at 1 µM: compound 1 μM; for inhibition at 10 µM: compound 10 μM
T1 construct: Recombinant full-length human EP (PeproTech, Cat #450-48C); purchased PeproTech 450-48C
T1 sequence (P98073 whole entry): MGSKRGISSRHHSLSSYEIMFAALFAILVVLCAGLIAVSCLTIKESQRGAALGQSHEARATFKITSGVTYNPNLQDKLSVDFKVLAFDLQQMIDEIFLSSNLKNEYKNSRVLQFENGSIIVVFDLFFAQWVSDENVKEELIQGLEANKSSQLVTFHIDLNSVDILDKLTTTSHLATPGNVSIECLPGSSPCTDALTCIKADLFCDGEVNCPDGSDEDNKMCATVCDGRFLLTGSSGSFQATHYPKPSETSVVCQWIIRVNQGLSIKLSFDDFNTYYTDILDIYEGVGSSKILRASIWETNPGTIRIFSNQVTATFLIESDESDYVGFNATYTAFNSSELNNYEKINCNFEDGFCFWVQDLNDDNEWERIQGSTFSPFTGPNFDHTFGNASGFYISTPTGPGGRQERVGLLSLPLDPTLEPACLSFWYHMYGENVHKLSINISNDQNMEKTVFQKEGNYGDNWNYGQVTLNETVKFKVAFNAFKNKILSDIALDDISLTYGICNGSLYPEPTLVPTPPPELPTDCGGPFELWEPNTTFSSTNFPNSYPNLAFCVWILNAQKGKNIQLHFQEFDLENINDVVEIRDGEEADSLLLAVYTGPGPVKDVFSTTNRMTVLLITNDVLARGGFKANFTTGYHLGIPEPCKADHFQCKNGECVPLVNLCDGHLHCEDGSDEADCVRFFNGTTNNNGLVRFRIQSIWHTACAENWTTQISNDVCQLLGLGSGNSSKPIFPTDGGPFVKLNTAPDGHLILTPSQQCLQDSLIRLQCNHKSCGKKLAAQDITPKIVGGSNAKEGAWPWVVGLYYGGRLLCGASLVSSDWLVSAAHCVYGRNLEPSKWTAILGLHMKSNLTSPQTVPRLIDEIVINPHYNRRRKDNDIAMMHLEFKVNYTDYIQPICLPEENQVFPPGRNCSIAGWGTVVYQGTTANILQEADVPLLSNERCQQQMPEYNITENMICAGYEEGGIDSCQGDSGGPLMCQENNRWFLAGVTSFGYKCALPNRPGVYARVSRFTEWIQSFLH
Description: In vitro inhibition potencies against Enteropeptidase (EP) Recombinant full-length human EP (PeproTech, Cat #450-48C) was used in this biochemical assay, with a quenched fluorescent labeled peptide GDDDDK-naphthylamine (NA) (Sigma, Cat #G5261) as the substrate in a buffer of 50 mM Tris-HCl pH 7.4, 200 mM NaCl and 0.01% Triton X-100. The enzyme activity was measured by following the formation of the cleavage product […](NA) by monitoring the fluorescence intensity (FI) at excitation/emission wavelengths of 340/410 nm. The steady-state kinetic characterization studies yielded an average of KM to be 412±22 μM and the apparent turnover number kcat^app of 11.8±0.4 s^−1 (N=2).
Compound inhibition studies were carried out under the conditions of 300 μM substrate and 1.25 nM EP. Reaction progress curves were collected by reading the FI at 340/410 nm continuously for 1 hour at an interval of 1 minute.
To screen compounds of formula (I), inhibition was studied at 4 different compound concentrations of 10 μM, 1 μM, 0.1 μM and 0.01 μM. Initial velocity of the reaction was determined, and percent of inhibition was calculated by comparing to the reaction in the absence of compound.
Accurate measurements of the inhibition potencies of selected compounds were studied in a 12-point dose-dependence fashion. […] Compound potency was measured by determining the inactivation rate constant (kobs) following the reaction change from the initial velocity vi to the steady-state velocity vs at various compound concentrations. The inactivation rate constants (kobs), were derived by fitting the reaction progress curves to eq. 1.
where YT is the detection signal of the reaction at time t, vi and vs are the initial and the steady-state velocities of the reaction, t is the reaction time. Y0 is the background signal (when t=0).
Compound binding mechanism was shown by plotting kobs˜[compound]. Hyperbolic fitting to eq. 2
conforms to a two-step binding mechanism as shown in Scheme BIO-1.
The plateau of the curve is the forward step rate constant of the isomerization step k3, KI^app is the inhibitor concentration that leads to half-maximal rate of inhibition of enzyme under the assay conditions. Compound inhibition potency was reported by the value of k3/KI^app.
A linear dependence of eq.3
indicates a one-step binding mechanism as shown in Scheme BIO-2
Slope of the linear fit gives the second-order rate constant of the compound binding k1, which is used to represent the compound inhibition potency.
(§1) Representative compounds of the present invention were tested according to the procedures as described in Biological Example 1 and Biological Example 2 above, with results as listed in Table 2 and Table 3, below. Results are reported as the %-inhibition (% Inh) or Kinact/KI value. Variability for the functional assay was typically within 20%. For the column headed Kinact/KI the listed measurement is the result of duplicate dilutions.

Bovine trypsin = molecular target: T2, Bovine trypsin (Bos taurus, UniProt P00760); assay: Biochemical Assay of Trypsin (T), H-D-CHA-AR-AMC substrate; conditions: 15 μM substrate, 0.025 nM Trypsin; for inhibition at 0.1 µM: compound 0.1 μM; for inhibition at 1 µM: compound 1 μM; for inhibition at 10 µM: compound 10 μM
T2 construct: purchased Sigma-Aldrich T1426
T2 sequence (P00760 24-246): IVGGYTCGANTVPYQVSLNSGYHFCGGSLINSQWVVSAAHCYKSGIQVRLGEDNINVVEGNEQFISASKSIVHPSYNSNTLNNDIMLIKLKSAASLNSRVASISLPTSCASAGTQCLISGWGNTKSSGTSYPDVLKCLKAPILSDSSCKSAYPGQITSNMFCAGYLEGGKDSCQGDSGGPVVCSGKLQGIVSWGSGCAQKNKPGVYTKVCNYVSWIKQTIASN
Description: Bovine trypsin was purchased from Sigma-Aldrich (Cat No. T1426), and 7-amino-4-methylcoumarin (AMC) conjugated peptide H-D-cyclohexylalanine (D-CHA)-AR-AMC was used as the substrate in the assay. The protease activity of trypsin was followed by measuring AMC production by the emission fluorescence intensity of AMC at 460 nm with the excitation at 375 nm, in the same assay buffer as used in the EP assay. The enzyme kinetic characterization studies yielded an average of KM to be 3.9±0.5 μM and the apparent turnover number kcat^app of 33.8±0.4 s^−1 (N=2).
Studies of compound inhibition against T were carried out under the conditions of 15 μM substrate and 0.025 nM Trypsin. Reaction progress curves were collected by reading the FI at 375/460 nm continuously for 1 hour at an interval of 1 minute. Similar to the procedure for Enteropeptidase described above, compounds of formula (I) were screened against Trypsin at 4 different concentrations to obtain the percent of inhibition at 10 μM, 1 μM, 0.1 μM and 0.01 μM, and accurate potencies of selected compounds against Trypsin were derived from detailed 12-point dose-dependence studies for time-dependent inhibitors.
as §1

SMILES	inhibition at 0.1 µM [1] [%]	inhibition at 1 µM [1] [%]	inhibition at 10 µM [1] [%]	inhibition at 0.1 µM (Bovine trypsin) [%]	inhibition at 1 µM (Bovine trypsin) [%]	inhibition at 10 µM (Bovine trypsin) [%]	kinact/KI ([1]; 12-point dose-dependence, time-dependent inhibition, duplicate dilutions, read-out: kinact/KI^App) [M⁻¹ s⁻¹]	kinact/KI (Bovine trypsin; 12-point dose-dependence, time-dependent inhibition, duplicate dilutions, read-out: Kinact/KI^App) [M⁻¹ s⁻¹]
N=C(N)Nc1ncc(C(=O)Oc2ccc(CC(=O)NC(CC(=O)O)C(=O)O)n3ncnc23)cn1 (centres unmarked) [Compound 28, 2-(2-(8-(2-guanidinopyrimidine-5-carbonyloxy)-[1,2,4]triazolo[1,5-a]pyridin-5-yl)acetamido)succinic acid]	88.6	98.5	99.9	97.8	99.9	100	–	–
N=C(N)Nc1ccc(C(=O)Oc2ccc(CC(=O)O)n3ncnc23)cc1O [Compound 23, 2-(8-(4-guanidino-3-hydroxybenzoyloxy)-[1,2,4]triazolo[1,5-a]pyridin-5-yl)acetic acid]	34.3	92.1	101	12.4	73.1	100	–	–
CONC(=N)c1ccc(C(=O)Oc2ccc(CC(=O)O)n3ncnc23)cc1 [Compound 36, 2-(8-(4-(N-methoxycarbamimidoyl)benzoyloxy)-[1,2,4]triazolo[1,5-a]pyridin-5-yl)acetic acid]	2.4	9.1	34	-3.1	-3.3	18.2	–	–
N=C(N)Nc1ccc(C(=O)Oc2cc(CC(=O)O)cn3ncnc23)cc1 [Compound 26, 2-(8-(4-guanidinobenzoyloxy)-[1,2,4]triazolo[1,5-a]pyridin-6-yl)acetic acid]	13.2	58.8	101	81.7	100	100	–	–
N=C(N)Nc1ncc(C(=O)Oc2ccc(CC(=O)O)n3ccnc23)cn1 [Compound 29, 2-(8-(2-guanidinopyrimidine-5-carbonyloxy)imidazo[1,2-a]pyridin-5-yl)acetic acid]	95.3	99.4	100	95.8	99.7	100	–	–
N=C(NN)c1ccc(C(=O)Oc2ccc(CC(=O)O)n3ncnc23)cc1 [Compound 39, 2-(8-(4-(hydrazinyl(imino)methyl)benzoyloxy)-[1,2,4]triazolo[1,5-a]pyridin-5-yl)acetic acid]	0.5	12.2	51.8	1.6	2.8	25.5	–	–
C#CCOCC#Cc1cc(NC(=N)N)ccc1C(=O)Oc1ccc(CC(=O)O)n2ncnc12 [Compound 43, 2-(8-((4-Guanidino-2-(3-(prop-2-yn-1-yloxy)prop-1-yn-1-yl)benzoyl)oxy)-[1,2,4]triazolo[1,5-a]pyridin-5-yl)acetic acid]	56.5	99.9	99.9	76.1	99.5	100	12300	40100
N=C(N)Nc1ccc(C(=O)Oc2ccc(CC(=O)O)n3ncnc23)c2ccoc12 [Compound 24]	36.3	98.8	100	14.6	80	99.9	–	–
N=C(N)Nc1ncc(C(=O)Oc2ccc(CC(=O)NC(CC(=O)O)C(=O)O)n3ccnc23)cn1 (centres unmarked) [Compound 31, 2-(2-(8-(2-guanidinopyrimidine-5-carbonyloxy)imidazo[1,2-a]pyridin-5-yl)acetamido)succinic acid]	85.8	99.7	99.8	95.7	99.9	100	–	–
N=C(N)Nc1ccc(C(=O)Oc2ccc(CC(=O)NC(CCC(=O)O)(CCC(=O)O)CCC(=O)O)n3ncnc23)cc1 [Compound 7, 4-(2-carboxyethyl)-4-(2-(8-(4-guanidinobenzoyloxy)-[1,2,4]triazolo[1,5-a]pyridin-5-yl)acetamido)heptanedioic acid]	37.8	100	100	94.1	100	100	–	–
N#Cc1cc(C(=O)Oc2ccc(CC(=O)O)n3ncnc23)ccc1NC(=N)N [Compound 22, 2-(8-(3-cyano-4-guanidinobenzoyloxy)-[1,2,4]triazolo[1,5-a]pyridin-5-yl)acetic acid]	-3	-6.3	32.1	0.9	12.3	29.9	–	–
CC(=N)Nc1ccc(C(=O)Oc2ccc(CC(=O)O)n3ncnc23)cc1 [Compound 37, 2-(8-(4-acetimidamidobenzoyloxy)-[1,2,4]triazolo[1,5-a]pyridin-5-yl)acetic acid]	47.8	99.6	100	11.5	68	99.7	–	–
CNC(=N)c1ccc(C(=O)Oc2ccc(CC(=O)O)n3ncnc23)cc1 [Compound 33, 2-(8-(4-(N-methylcarbamimidoyl)benzoyloxy)-[1,2,4]triazolo[1,5-a]pyridin-5-yl)acetic acid]	-0.8	11.3	52.3	5.7	8.7	66.5	–	–
CS(=O)(=O)NC(=O)Cc1ccc(OC(=O)c2cnc(NC(=N)N)nc2)c2ncnn12 [Compound 30, 5-(2-(methylsulfonamido)-2-oxoethyl)-[1,2,4]triazolo[1,5-a]pyridin-8-yl 2-guanidinopyrimidine-5-carboxylate]	92.1	99.5	100	96.5	100	100	–	–
N=C(N)Nc1ccc(C(=O)Oc2ccc(CC(=O)O)n3ncnc23)c(Cl)c1 [Compound 18, 2-(8-(2-chloro-4-guanidinobenzoyloxy)-[1,2,4]triazolo[1,5-a]pyridin-5-yl)acetic acid]	81.2	100	100	43.5	97.6	99.9	–	–
Cc1cc(NC(=N)N)ccc1C(=O)Oc1ccc(CC(=O)O)n2ncnc12 [Compound 19, 2-(8-(4-guanidino-2-methylbenzoyloxy)-[1,2,4]triazolo[1,5-a]pyridin-5-yl)acetic acid]	10.3	59.9	101	9.5	48.9	99.7	–	–
